The text below walks through data of article PMC12136037, “Type II kinase inhibitors that target Parkinson’s disease–associated LRRK2” (Science Advances, 2025).

For assay [1], the target named is T1, LRRK2^KW (Homo sapiens, UniProt Q5S007).
T1 construct: LRRK2 R1847 to E2527; His6-Z-tag (TEV cleavable) (N, cleaved yes); host or cells: Sf9 insect cells (baculovirus)
T1 sequence (Q5S007 1847-2527): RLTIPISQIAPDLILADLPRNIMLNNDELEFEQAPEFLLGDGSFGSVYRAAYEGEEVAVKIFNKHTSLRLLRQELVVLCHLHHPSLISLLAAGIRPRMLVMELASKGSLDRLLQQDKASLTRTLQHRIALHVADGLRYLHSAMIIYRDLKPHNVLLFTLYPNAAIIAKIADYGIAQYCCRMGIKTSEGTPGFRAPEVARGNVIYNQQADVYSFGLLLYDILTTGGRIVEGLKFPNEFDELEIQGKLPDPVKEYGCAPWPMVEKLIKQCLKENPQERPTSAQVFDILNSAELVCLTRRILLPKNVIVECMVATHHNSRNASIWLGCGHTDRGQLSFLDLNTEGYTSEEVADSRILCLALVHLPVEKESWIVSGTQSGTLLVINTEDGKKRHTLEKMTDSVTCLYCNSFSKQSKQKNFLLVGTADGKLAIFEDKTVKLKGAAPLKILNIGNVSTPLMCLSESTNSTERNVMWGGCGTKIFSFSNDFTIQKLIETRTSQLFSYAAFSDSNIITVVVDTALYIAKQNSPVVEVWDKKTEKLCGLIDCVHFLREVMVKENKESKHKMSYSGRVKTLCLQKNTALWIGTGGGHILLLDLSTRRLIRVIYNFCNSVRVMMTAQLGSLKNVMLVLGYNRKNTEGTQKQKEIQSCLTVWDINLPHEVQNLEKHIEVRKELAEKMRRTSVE
Put plainly: DSF thermal stabilization of LRRK2^KW. The format is binding. The conditions noted are these: DSF, LRRK2^KW, 10 μM inhibitor. Put shortly:
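DSF on 4 μM LRRK2^KW in 20 mM Hepes pH 7.4, 150 mM NaCl, 0.5 mM TCEP, 0.5% glycerol, 20 μM GDP, 2.5 mM MgCl2 with SYPRO Orange; inhibitor at 10 μM. Tm was taken as the minimum of the first derivative of fluorescence versus temperature, relative to control.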

Assay [2] deals with T2, LRRK2^RCKW (Homo sapiens, UniProt Q5S007).
T2 construct: LRRK2 R1327 to E2527; His6-Z-tag (TEV cleavable) (N, cleaved yes); host or cells: Sf9 insect cells (baculovirus)
T2 sequence (Q5S007 1327-2527): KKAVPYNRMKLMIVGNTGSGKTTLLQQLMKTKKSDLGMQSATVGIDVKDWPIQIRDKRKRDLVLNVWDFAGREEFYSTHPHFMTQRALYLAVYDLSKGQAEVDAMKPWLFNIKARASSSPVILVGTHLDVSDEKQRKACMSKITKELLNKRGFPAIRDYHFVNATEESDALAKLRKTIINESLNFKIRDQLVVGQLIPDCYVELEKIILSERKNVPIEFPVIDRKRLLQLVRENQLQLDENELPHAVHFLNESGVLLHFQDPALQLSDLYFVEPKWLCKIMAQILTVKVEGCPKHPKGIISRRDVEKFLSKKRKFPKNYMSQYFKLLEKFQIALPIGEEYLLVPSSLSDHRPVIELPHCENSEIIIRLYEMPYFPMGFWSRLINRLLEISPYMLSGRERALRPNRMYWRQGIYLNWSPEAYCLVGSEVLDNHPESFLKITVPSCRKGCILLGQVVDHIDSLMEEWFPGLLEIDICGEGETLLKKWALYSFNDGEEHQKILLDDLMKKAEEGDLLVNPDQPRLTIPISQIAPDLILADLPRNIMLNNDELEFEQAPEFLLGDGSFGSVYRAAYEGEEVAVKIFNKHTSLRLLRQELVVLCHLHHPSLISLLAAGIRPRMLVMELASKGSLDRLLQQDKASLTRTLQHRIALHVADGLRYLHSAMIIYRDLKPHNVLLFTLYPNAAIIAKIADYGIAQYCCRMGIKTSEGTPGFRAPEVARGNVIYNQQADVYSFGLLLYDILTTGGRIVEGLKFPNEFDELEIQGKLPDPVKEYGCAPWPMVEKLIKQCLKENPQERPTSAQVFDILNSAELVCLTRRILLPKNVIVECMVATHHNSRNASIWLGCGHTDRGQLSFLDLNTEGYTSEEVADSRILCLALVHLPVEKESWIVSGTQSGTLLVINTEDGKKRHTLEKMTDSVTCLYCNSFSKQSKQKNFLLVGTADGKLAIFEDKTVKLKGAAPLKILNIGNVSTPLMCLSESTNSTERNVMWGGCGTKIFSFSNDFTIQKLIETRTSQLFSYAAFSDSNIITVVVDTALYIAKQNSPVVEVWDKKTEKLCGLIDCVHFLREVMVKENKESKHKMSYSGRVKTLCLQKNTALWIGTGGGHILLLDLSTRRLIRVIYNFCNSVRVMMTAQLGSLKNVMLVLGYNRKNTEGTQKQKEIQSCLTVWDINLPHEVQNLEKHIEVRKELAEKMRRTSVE
Put plainly: Biochemical LRRK2 activity assay (PhosphoSense, AssayQuant SOX peptide AQT0615). Conditions: for IC50: LRRK2^RCKW kinase activity, in vitro; for normalized response (LRRK2 activity): normalized to 0% (no kinase) and 100% (no inhibitor) control, two singlicate columns per compound. Put shortly:
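Controls lacked protein and compound (0%) or compound only (100%). IC50 derived by nonlinear regression of normalized response versus log[inhibitor].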

Several values for one entry are separate records, joined by “and”; a condition that tells them apart may be missing. Identical values can stand only once.

For orientation: IC50 means the midpoint of a concentration-inhibition curve. With `CC(C)(C)c1cccc(NC(=O)C2(C(=O)Nc3cccc(-c4c[nH]c5ncnc(N6CCOCC6)c45)c3)CC2)c1` [Compound 22], in assay [1], the “∆Tm (K)” value was 12.0 K. Also, half-maximal inhibition in assay [2] (IC50) was put at 0.886 ± 0.063 µM. Further, the “normalized response (LRRK2 activity)” value in assay [2] (log[inhibitor(mol)] -4.82391) was 10.3797% and 6.914%; in assay [2] (log[inhibitor(mol)] -5.12494) it was 10.6927% and 10.684%; in assay [2] (log[inhibitor(mol)] -5.60206) it was 26.6669% and 27.2452%; in assay [2] (log[inhibitor(mol)] -6.30103), 59.6653% and 62.0504%; in assay [2] (log[inhibitor(mol)] -6.90309) it was 86.7302% and 90.6112%; in assay [2] (log[inhibitor(mol)] -7.30103) it was 94.29% and 100.35%. Moreover, the “normalized response (LRRK2 activity)” value in assay [2] (log[inhibitor(mol)] -7.60206) was 102.254% and 104.876%; in assay [2] (log[inhibitor(mol)] -8.09691), 100.313% and 102.032%; in assay [2] (log[inhibitor(mol)] -8.61979), 105% and 108.964%; in assay [2] (log[inhibitor(mol)] -9.09691), 105.539% and 102.73%; in assay [2] (log[inhibitor(mol)] -9.39794) it was 104.285% and 104.996%.

As for `COc1ccc(NC(=O)C2(C(=O)Nc3cccc(-c4c[nH]c5ncnc(N6CCOCC6)c45)c3)CC2)cc1` [Compound 16], the “∆Tm (K)” value in assay [1] is on record as 4.3 K. Also, the IC50 in assay [2] was 1.1 ± 0.217 µM. Moreover, the “normalized response (LRRK2 activity)” value in assay [2] (log[inhibitor(mol)] -4.82391) was -5.114% and -9.8151%; in assay [2] (log[inhibitor(mol)] -5.12494), 0.6005% and -2.272%; in assay [2] (log[inhibitor(mol)] -5.60206), 29.0484% and 32.3505%; in assay [2] (log[inhibitor(mol)] -6.30103) it was 66.3591% and 78.0881%; in assay [2] (log[inhibitor(mol)] -6.90309), 96.3721% and 94.5984%; in assay [2] (log[inhibitor(mol)] -7.30103) it was 96.366% and 105.259%. Moreover, the “normalized response (LRRK2 activity)” value is 97.2621% and 95.7829% in assay [2] (log[inhibitor(mol)] -7.60206); 97.8759% and 91.3822% in assay [2] (log[inhibitor(mol)] -8.09691); 98.0661% and 96.7588% in assay [2] (log[inhibitor(mol)] -8.61979); 100.497% and 98.6001% in assay [2] (log[inhibitor(mol)] -9.09691); 96.0714% and 99.3612% in assay [2] (log[inhibitor(mol)] -9.39794).

Take `CC(=O)N1CCN(c2nc(Cl)nc3[nH]cc(-c4cccc(NC(=O)Nc5cc(C(C)(C)C)nn5-c5ccc(C)cc5)c4)c23)CC1` [Compound 31]: the “∆Tm (K)” value in assay [1] came out at 18.0 K. The molecule further gave an IC50 in assay [2] of 0.0824 ± 0.019 µM. For the same molecule, the “normalized response (LRRK2 activity)” value in assay [2] (log[inhibitor(mol)] -5.12494) was -8.142% and -8.098%; in assay [2] (log[inhibitor(mol)] -5.60206), -6.069% and -3.667%; in assay [2] (log[inhibitor(mol)] -6.30103), 1.516% and 5.662%; in assay [2] (log[inhibitor(mol)] -6.90309), 27.0499% and 37.6124%; in assay [2] (log[inhibitor(mol)] -7.30103), 59.8343% and 70.8356%; in assay [2] (log[inhibitor(mol)] -7.60206) it was 80.8168% and 85.4399%. Moreover, the “normalized response (LRRK2 activity)” value in assay [2] (log[inhibitor(mol)] -8.09691) is 99.1997% and 109.801%; in assay [2] (log[inhibitor(mol)] -8.61979), 111.451% and 122.71%; in assay [2] (log[inhibitor(mol)] -9.09691), 117.928% and 123.215%; in assay [2] (log[inhibitor(mol)] -9.39794), 115.57% and 119.935%.

For `Cc1cc(NC(=O)C2(C(=O)Nc3ccc(F)cc3)CC2)cc(-c2c[nH]c3ncnc(N4CCOCC4)c23)c1` [Compound 6], in assay [1], the “∆Tm (K)” value amounted to 10.0 K. In addition, half-maximal inhibition in assay [2] (IC50) was put at 2.15 ± 0.076 µM. For the same molecule, the “normalized response (LRRK2 activity)” value was 17.1176% and 19.6941% in assay [2] (log[inhibitor(mol)] -4.82391); 21.5574% and 22.3836% in assay [2] (log[inhibitor(mol)] -5.12494); 47.7852% and 45.6806% in assay [2] (log[inhibitor(mol)] -5.60206); 71.6605% and 77.9071% in assay [2] (log[inhibitor(mol)] -6.30103); 94.0943% and 97.1643% in assay [2] (log[inhibitor(mol)] -6.90309); 97.7557% and 95.1358% in assay [2] (log[inhibitor(mol)] -7.30103). Further, the “normalized response (LRRK2 activity)” value was 95.6902% and 98.0188% in assay [2] (log[inhibitor(mol)] -7.60206); 96.4251% and 96.973% in assay [2] (log[inhibitor(mol)] -8.09691); 102.476% and 68.784% in assay [2] (log[inhibitor(mol)] -8.61979); 101.485% and 101.404% in assay [2] (log[inhibitor(mol)] -9.09691); 101.487% and 73.6695% in assay [2] (log[inhibitor(mol)] -9.39794).

Consider `O=C(Nc1cccc(-c2c[nH]c3ncnc(N4CCOCC4)c23)c1)C1(C(=O)Nc2ccc(F)c(Br)c2F)CC1` [Compound 26], for which the “∆Tm (K)” value in assay [1] is given as 10.7 K. This molecule also showed an IC50 in assay [2] of 0.134 ± 0.005 µM. Moreover, the “normalized response (LRRK2 activity)” value is 1.939% and 8.5359% in assay [2] (log[inhibitor(mol)] -4.82391); 9.123% and 11.3015% in assay [2] (log[inhibitor(mol)] -5.12494); 44.4326% and 42.5431% in assay [2] (log[inhibitor(mol)] -5.60206); 13.6454% and 21.2987% in assay [2] (log[inhibitor(mol)] -6.30103); 53.1512% and 54.1949% in assay [2] (log[inhibitor(mol)] -6.90309); 78.8268% and 70.6625% in assay [2] (log[inhibitor(mol)] -7.30103). Moreover, the “normalized response (LRRK2 activity)” value was 83.0818% and 80.8923% in assay [2] (log[inhibitor(mol)] -7.60206); 91.3569% and 90.9395% in assay [2] (log[inhibitor(mol)] -8.09691); 93.5464% and 85.6887% in assay [2] (log[inhibitor(mol)] -8.61979); 97.2382% and 103.098% in assay [2] (log[inhibitor(mol)] -9.09691); 97.1774% and 94.1421% in assay [2] (log[inhibitor(mol)] -9.39794).

As to `O=C(Nc1cccc(-c2c[nH]c3ncnc(N4CCOCC4)c23)c1)C1(C(=O)Nc2cccc3c2CCC3)CC1` [Compound 11], in assay [1], the “∆Tm (K)” value is recorded as 9.2 K. Moreover, in assay [2], it took 0.989 ± 0.032 µM to reach half-maximal inhibition (IC50). For the same molecule, the “normalized response (LRRK2 activity)” value in assay [2] (log[inhibitor(mol)] -4.82391) was 10.5992% and 8.534%; in assay [2] (log[inhibitor(mol)] -5.12494) it was 11.3407% and 2.1893%; in assay [2] (log[inhibitor(mol)] -5.60206), 26.743% and 30.013%; in assay [2] (log[inhibitor(mol)] -6.30103) it was 46.8199% and 60.7415%; in assay [2] (log[inhibitor(mol)] -6.90309) it was 90.6286% and 91.37%; in assay [2] (log[inhibitor(mol)] -7.30103), 100.861% and 98.8124%. The “normalized response (LRRK2 activity)” value in assay [2] (log[inhibitor(mol)] -7.60206) was 104.989% and 102.561%; in assay [2] (log[inhibitor(mol)] -8.09691), 99.7669% and 103.043%; in assay [2] (log[inhibitor(mol)] -8.61979), 100.861% and 99.0776%; in assay [2] (log[inhibitor(mol)] -9.09691) it was 103.172% and 100.678%; in assay [2] (log[inhibitor(mol)] -9.39794), 101.258% and 104.313%.
